Results: ChEMBL document CHEMBL5236635, “Structure-Based Drug Design and Synthesis of Novel N-Aryl-2,4-bithiazole-2-amine CYP1B1-Selective Inhibitors in Overcoming Taxol Resistance in A549 Cells” (J Med Chem, 2022)
Activity calls are given as the source filed them.

Assays:
A549 [1] = experiment: Inhibition of DMBA induced taxol resistance in human A549 cells; format: functional, cell-based; settings: dose 2.5-10 µM
A549/TR [2] = experiment: Synergistic antiproliferative activity against human A549/Taxol cells assessed as increase in taxol by measuring combination index at 3.75 uM incubated for 72 hrs in presence of 0.13 uM taxol by MTT assay; format: functional
A549/TR [3] = experiment: Synergistic antiproliferative activity against human A549/Taxol cells assessed as increase in taxol by measuring combination index at 3.75 uM incubated for 72 hrs in presence of 0.25 uM taxol by MTT assay; format: functional
A549/TR [4] = experiment: Synergistic antiproliferative activity against human A549/Taxol cells assessed as increase in taxol by measuring combination index at 7.50 uM incubated for 72 hrs in presence of 1 uM taxol by MTT assay; format: functional; settings: dose 7.5 µM
A549/TR [5] = experiment: Synergistic antiproliferative activity against human A549/Taxol cells assessed as increase in taxol by measuring combination index at 15 uM incubated for 72 hrs in presence of 0.25 uM taxol by MTT assay; format: functional
A549/TR [6] = experiment: Reversal of taxol resistance in human A549/Taxol cells assessed as increase in Rho123 accumulation at 2.5 to 10 uM incubated for 20 mins by multimode plate reader analysis; format: functional, cell-based; settings: dose 2.5-10 µM
A549/Taxol = experiment: Inhibition of AKT pathway in human A549/Taxol cells assessed as decrease in phosphorylated AKT level at 2.5 to 5 uM incubated for 24 hrs; format: cell-based; settings: dose 2.5-5 µM
[7] = target: Focal adhesion kinase 1 (Homo sapiens) (UniProt Q05397); experiment: Inhibition of FAK pathway in human A549/Taxol cells assessed as decrease in phosphorylated FAK level at 2.5 to 5 uM incubated for 24 hrs; format: cell-based; settings: dose 2.5-5 µM
A549/TR [8] = experiment: Downregulation of Vimentin expression level in human A549/Taxol cells at 2.5 to 10 uM incubated for 24 hrs by densitometry analysis; format: functional, cell-based; settings: dose 2.5-10 µM
NCI-H460 [9] = experiment: Inhibition of DMBA-induced CYP1B1 expression level in human NCI-H460 cells at 5 uM incubated for 24 hrs; format: functional, cell-based
NCI-H460 [10] = experiment: Upregulation of DMBA-induced CYP1B1 expression level in human NCI-H460 cells incubated for 24 hrs; format: functional, cell-based; settings: dose 1-10 µM
A549 [11] = experiment: Downregulation of DMBA-induced CYP1B1 expression level in human A549 cells at 5 uM incubated for 24 hrs; format: functional, cell-based
NCI-H460 [12] = experiment: Upregulation of DMBA-induced CYP1B1 expression level in human NCI-H460 cells at 5 uM incubated for 24 hrs; format: functional, cell-based
A549 [13] = experiment: Inhibition of DMBA-induced AKT overexpression in human taxol resistance A549 cells incubated for 24 hrs; format: functional, cell-based; settings: dose 5.0 µM
NCI-H460 [14] = experiment: Inhibition of DMBA-induced AKT overexpression in human taxol resistance NCI-H460 cells at 5 uM incubated for 24 hrs; format: functional, cell-based
A549 [15] = experiment: Antiproliferative activity against human taxol resistance human A549 cells assessed as reduction in cell viability incubated for 24 hrs by MTT assay; format: functional, cell-based; settings: dose 5.0 µM
NCI-H460 [16] = experiment: Inhibition of DMBA-induced CYP1B1 overexpression in human NCI-H460 cells assessed as increase in FAK level incubated for 24 hrs by densitometry analysis; format: functional, cell-based; settings: dose 5.0 µM
A549 [17] = experiment: Inhibition of DMBA-induced CYP1B1 overexpression in human A549 cells assessed as increase in SRC level incubated for 24 hrs by densitometry analysis; format: functional, cell-based; settings: dose 5.0 µM
NCI-H460 [18] = experiment: Inhibition of DMBA-induced CYP1B1 overexpression in human NCI-H460 cells assessed as increase in SRC level incubated for 24 hrs by densitometry analysis; format: functional, cell-based; settings: dose 5.0 µM
NCI-H460 [19] = experiment: Inhibition of DMBA-induced CYP1B1 overexpression in human NCI-H460 cells assessed as increase in Paxillin level incubated for 24 hrs by densitometry analysis; format: functional, cell-based; settings: dose 5.0 µM
A549 [20] = experiment: Inhibition of DMBA-induced CYP1B1 overexpression in human A549 cells assessed as increase in SRC level at 5 uM incubated for 24 hrs by densitometry analysis; format: functional, cell-based
A549 [21] = experiment: Inhibition of cell invasion in DMBA-induced human A549 cells at 5 uM by optical microscopic analysis; format: functional, cell-based
A549 [22] = experiment: Inhibition of DMBA-induced CYP1B1 overexpression in human A549 cells assessed as increase in N-cadherin level incubated for 24 hrs by densitometry analysis; format: functional, cell-based; settings: dose 5.0 µM
NCI-H460 [23] = experiment: Inhibition of DMBA-induced CYP1B1 overexpression in human NCI-H460 cells assessed as increase in N-cadherin level incubated for 24 hrs by densitometry analysis; format: functional, cell-based; settings: dose 5.0 µM
A549 [24] = experiment: Inhibition of DMBA-induced CYP1B1 overexpression in human A549 cells assessed as increase in Vimentin level incubated for 24 hrs by densitometry analysis; format: functional, cell-based; settings: dose 5.0 µM
NCI-H460 [25] = experiment: Inhibition of DMBA-induced CYP1B1 overexpression in human NCI-H460 cells assessed as increase in Vimentin level incubated for 24 hrs by densitometry analysis; format: functional, cell-based; settings: dose 5.0 µM
NCI-H460 [26] = experiment: Inhibition of DMBA-induced CYP1B1 overexpression in human NCI-H460 cells assessed as effect on E-cadherin level at 5 uM incubated for 24 hrs by densitometry analysis; format: functional, cell-based
A549 [27] = experiment: Inhibition of DMBA-induced CYP1B1 overexpression in human A549 cells assessed as effect on E-cadherin level at 5 uM incubated for 24 hrs by densitometry analysis; format: functional, cell-based
CYP1B1 = target: T1, CYP1B1 (Homo sapiens, UniProt Q16678); experiment: Inhibition of recombinant human CYP1B1 assessed as inhibition ratio at 100 nM using 7-ethyl-0-resorufin as substrate incubated for 30 mins in presence of NADPH by EROD assay relative to control; settings: recombinant enzyme
T1 sequence (Q16678 whole entry): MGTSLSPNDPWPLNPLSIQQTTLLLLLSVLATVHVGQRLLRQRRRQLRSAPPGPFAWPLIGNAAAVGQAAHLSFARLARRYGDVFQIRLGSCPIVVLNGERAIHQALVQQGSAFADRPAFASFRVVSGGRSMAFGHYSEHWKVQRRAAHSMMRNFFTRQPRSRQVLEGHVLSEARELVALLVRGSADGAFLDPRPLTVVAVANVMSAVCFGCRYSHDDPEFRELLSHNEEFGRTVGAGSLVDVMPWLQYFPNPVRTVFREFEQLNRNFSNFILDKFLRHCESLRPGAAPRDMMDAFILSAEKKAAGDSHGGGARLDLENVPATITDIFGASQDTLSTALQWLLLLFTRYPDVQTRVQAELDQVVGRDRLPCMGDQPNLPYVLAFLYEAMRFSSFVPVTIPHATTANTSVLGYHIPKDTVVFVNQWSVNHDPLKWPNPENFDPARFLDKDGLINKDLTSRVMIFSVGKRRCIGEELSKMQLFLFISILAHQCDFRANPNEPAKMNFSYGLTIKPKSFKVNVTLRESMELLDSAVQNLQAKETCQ

[28] = target: Focal adhesion kinase 1 (Homo sapiens) (UniProt Q05397); experiment: Inhibition of FAK pathway in human A549/Taxol cells assessed as decrease in phosphorylated FAK level at 5 uM incubated for 24 hrs; format: cell-based

Chain of Focal adhesion kinase 1 (Homo sapiens) (Q05397 2-1052 limits assumed): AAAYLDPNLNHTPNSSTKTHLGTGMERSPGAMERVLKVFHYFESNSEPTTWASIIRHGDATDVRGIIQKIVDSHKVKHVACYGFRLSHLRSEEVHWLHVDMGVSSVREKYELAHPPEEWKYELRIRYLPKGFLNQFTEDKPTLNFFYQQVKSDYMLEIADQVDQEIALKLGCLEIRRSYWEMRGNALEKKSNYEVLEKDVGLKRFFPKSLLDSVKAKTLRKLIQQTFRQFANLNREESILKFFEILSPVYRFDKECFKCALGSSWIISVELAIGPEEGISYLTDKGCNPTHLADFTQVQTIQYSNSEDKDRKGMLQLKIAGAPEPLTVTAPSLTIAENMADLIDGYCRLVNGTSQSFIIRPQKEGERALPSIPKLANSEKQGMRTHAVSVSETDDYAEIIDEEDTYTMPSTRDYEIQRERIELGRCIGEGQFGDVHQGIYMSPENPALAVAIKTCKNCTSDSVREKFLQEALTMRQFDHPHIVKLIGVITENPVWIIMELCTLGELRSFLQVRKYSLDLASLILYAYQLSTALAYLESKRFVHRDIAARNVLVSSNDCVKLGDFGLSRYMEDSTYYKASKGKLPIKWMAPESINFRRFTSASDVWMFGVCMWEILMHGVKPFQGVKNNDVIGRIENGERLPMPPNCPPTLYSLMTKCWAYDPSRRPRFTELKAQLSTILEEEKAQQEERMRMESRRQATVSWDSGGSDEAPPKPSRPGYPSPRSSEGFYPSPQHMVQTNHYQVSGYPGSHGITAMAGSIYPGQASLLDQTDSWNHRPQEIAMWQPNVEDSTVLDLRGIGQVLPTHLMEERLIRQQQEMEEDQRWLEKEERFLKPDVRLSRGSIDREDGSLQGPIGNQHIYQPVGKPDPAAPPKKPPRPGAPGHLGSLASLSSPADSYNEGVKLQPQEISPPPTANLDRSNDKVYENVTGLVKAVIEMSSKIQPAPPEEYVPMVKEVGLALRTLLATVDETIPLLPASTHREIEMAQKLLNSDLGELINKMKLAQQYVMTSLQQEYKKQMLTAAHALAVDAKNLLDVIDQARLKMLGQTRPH

COc1cc(Nc2nc(-c3nc(-c4ccccc4F)cs3)cs2)cc(OC)c1
0.55: CI (A549/TR [2]) | CI (A549/TR [3])
1.36: CI (A549/TR [4])
0.3: CI (A549/TR [5])
inactive: Activity (A549/TR [8])
active: inhibition (A549 [1]) Dose-Dependent Effect | Activity (A549/TR [6]) | inhibition (A549/Taxol) | inhibition [7]

COc1cc(/C=C/c2ccc(OC)cc2OC)cc(OC)c1
active: inhibition (NCI-H460 [9]) | Activity (NCI-H460 [10]) Dose-Dependent Effect | inhibition (A549 [13]) Dose-Dependent Effect | inhibition (NCI-H460 [14]) | Activity (A549 [15]) Dose-Dependent Effect | inhibition (NCI-H460 [16]) Dose-Dependent Effect | inhibition (A549 [17]) Dose-Dependent Effect | inhibition (NCI-H460 [18]) Dose-Dependent Effect | inhibition (NCI-H460 [19]) Dose-Dependent Effect | inhibition (A549 [21]) | inhibition (A549 [22]) Dose-Dependent Effect | inhibition (NCI-H460 [23]) Dose-Dependent Effect | inhibition (A549 [24]) Dose-Dependent Effect | inhibition (NCI-H460 [25]) Dose-Dependent Effect | inhibition [28]
88.9%: inhibition at 0.5 h, 0.1 µM (CYP1B1)
inactive: Activity (A549 [11]) | Activity (NCI-H460 [12]) | inhibition (A549 [20]) | inhibition (NCI-H460 [26]) | inhibition (A549 [27])
